According to patent publication US6613767B1, “Stable aqueous folinate solution” (Pharmachemie B.V., priority 1994, dated 2003):

Assays:
[1] = normal refrigerator temperature of approximately 4° C.; cited from earlier work
[2] = Accelerated shelf life tests of sodium folinate injection, 40° C./75% RH; type: physicochemical; conditions: during autoclaving (121° C. for 7 min)
Procedure: Tests were carried out with sodium folinate bulk solutions of 200 ml containing 25, 100, 250 and 400 mg sodium folinate/ml respectively as indicated in Table 1. Each bulk solution was prepared with a 2% excess of sodium folinate, because during autoclaving ca. 2% folinic acid decomposes. Subsquently, 2.15 ml of each formulated solution was used to fill 2R bottles to the exclusion of air. Afterwards, the bottles were then autoclaved at 121° C. for 7 min. The bottles were thereafter stored at 40° C./75% RH (RH=relative humidity). The following analyses were carried out initially at the beginning of the test and after two weeks:
oxygen percentage in the headspace
content of folinic acid and decomposition products.
The results are summarized in the Tables 2-5 for the accelerated shelf life tests of the sodium folinate injection preparation having a content of sodium folinate of 25 mg/ml, 100 mg/ml, 250 mg/ml and 400 mg/ml, respectively. The bottles were stored at 40° C./[…] during the two week time period for the shelf life tests.

| Structure (SMILES) | Concentration at which crystallization takes place [1] | Folinic acid decomposed during autoclaving [2] |
| --- | --- | --- |
| Nc1nc(=O)c2c([nH]1)NCC(CNc1ccc(C(=O)N[C@@H](CCC(=O)[O-])C(=O)[O-])cc1)N2C=O.[Ca+2] (some centres unmarked) [Calcium folinate, calcium folinate] | ≥ 15000 µg/mL |  |
| Nc1nc(=O)c2c([nH]1)NC[C@@H](CNc1ccc(C(=O)N[C@@H](CCC(=O)O)C(=O)O)cc1)N2C=O [folinic acid] |  | ca. 2% |
